Assay results published in US12673944B2, “Compounds having inhibitory activity against glucosylceramide synthase or pharmaceutically acceptable salt thereof, processes for preparing the same, and pharmaceutical compositions comprising the same” (YUHAN CORPORATION, priority 2019, dated 2026).
Where two headings read alike, the source gives them in different places.

What was measured:
[1] = target: T1, glucosylceramide synthase (GCS) (Homo sapiens, UniProt Q16739); experiment: GCS enzyme inhibition assay (A549 cell lysate, NBD C6-ceramide, HPLC fluorescence); assay type: biochemical; settings: inhibitory activity against GCS, 37° C., 90 minutes
T1 construct: The obtained supernatant was used; host or cells: A549 cells (lysate supernatant after sonication)
T1 sequence (Q16739 1-394): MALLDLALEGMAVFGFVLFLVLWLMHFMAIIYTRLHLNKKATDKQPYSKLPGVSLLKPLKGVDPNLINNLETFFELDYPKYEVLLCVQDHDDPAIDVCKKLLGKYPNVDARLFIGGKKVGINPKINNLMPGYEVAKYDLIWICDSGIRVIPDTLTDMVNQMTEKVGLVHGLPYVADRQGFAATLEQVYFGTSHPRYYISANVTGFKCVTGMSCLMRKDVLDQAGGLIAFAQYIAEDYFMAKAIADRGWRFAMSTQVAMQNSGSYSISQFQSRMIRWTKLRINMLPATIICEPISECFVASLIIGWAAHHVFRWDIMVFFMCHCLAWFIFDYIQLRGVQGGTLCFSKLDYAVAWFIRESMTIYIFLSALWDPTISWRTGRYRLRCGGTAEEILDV
Description: Ibiglustat, known as a GCS inhibitor, was used as a control.
After the cells attached to the culture dish were washed with phosphate buffered saline (PBS), the cells were scraped off with a cell scraper and then centrifuged (4000 rpm, 3 min, 4° C.) to collect the cells in a 50 ml tube. The cell pellets were suspended in a lysis buffer (50 mM HEPES, pH 7.3, containing 1× the protease/phosphatase inhibitor cocktail), lysed by sonication, and then the lysate was centrifuged (13000 rpm, 10 min, 4° C.). The obtained supernatant was used for the quantitative analysis of proteins. The amount of proteins was measured using the BCA protein assay kit, using bovine serum albumin as a standard.
Enzymatic reactions were initiated by sequentially adding the following reaction materials to a 96 deep-well plate. Thereafter, the enzymatic reactions were performed at 37° C. for 90 minutes.
The enzymatic reactions were stopped by adding 100 μl of chloroform/methanol (2:1, v/v). After vortexing for 15 seconds, each mixture was centrifuged (4000 rpm, 10 min, 18° C.). The lower layer (50 μl) was transferred to a new 96 deep-well plate and dried with a reduced concentrator.
Data analysis was performed by the following equations. % Area(Sample)=Area(GlcCer)/[Area(Cer)+Area(GlcCer)]×100 % GCS activity=[Area(Sample)−Area(ibiglustat)]/[Area(DMSO)−Area(ibiglustat)]×100

[2] = system: GM1 production in Jurkat cells; experiment: cells; assay type: cell-based

Compound | IC50 [1] | IC50 ([2]; Homo sapiens, Jurkat, 72 h) | IC50 ([2]; read-out: IC50)
O=C(NC1CCOc2cc(-c3cccc(F)c3)ccc21)O[C@@H]1CN2CCC1CC2 (stereo partly drawn) [Example 1, (S)-quinuclidin-3-yl (7-(3-fluorophenyl)chroman-4-yl)carbamate] | 2.6 nM | 1.69 nM | 
O=C(NC1CCOc2cc(-c3cccc(Cl)c3)ccc21)O[C@@H]1CN2CCC1CC2 (stereo partly drawn) [Example 2, (S)-quinuclidin-3-yl (7-(3-chlorophenyl)chroman-4-yl)carbamate] | 0.7 nM | 3.47 nM | 
O=C(NC1CCOc2cc(-c3cccc(C(F)(F)F)c3)ccc21)O[C@@H]1CN2CCC1CC2 (stereo partly drawn) [Example 3, (S)-quinuclidin-3-yl (7-(3-(trifluoromethyl)phenyl)chroman-4-yl)carbamate] | 0.7 nM | 2.13 nM | 
O=C(NC1CCOc2cc(-c3cccc(OC(F)(F)F)c3)ccc21)O[C@@H]1CN2CCC1CC2 (stereo partly drawn) [Example 4, (S)-quinuclidin-3-yl (7-(3-(trifluoromethoxy)phenyl)chroman-4-yl)carbamate] | 0.7 nM | 1.08 nM | 
COCOc1ccccc1-c1ccc2c(c1)OCCC2NC(=O)O[C@@H]1CN2CCC1CC2 (stereo partly drawn) [Example 5, (S)-quinuclidin-3-yl (7-(2-(methoxymethoxy)phenyl)chroman-4-yl)carbamate] | 3.71 nM | 29.2 nM | 
COCOc1cccc(-c2ccc3c(c2)OCCC3NC(=O)O[C@@H]2CN3CCC2CC3)c1 (stereo partly drawn) [Example 6, (S)-quinuclidin-3-yl (7-(3-(methoxymethoxy)phenyl)chroman-4-yl)carbamate] | 0.67 nM | 7.18 nM | 
COCCOc1ccccc1-c1ccc2c(c1)OCCC2NC(=O)O[C@@H]1CN2CCC1CC2 (stereo partly drawn) [Example 7, (S)-quinuclidin-3-yl (7-(2-(2-methoxyethoxy)phenyl)chroman-4-yl)carbamate] | 3.28 nM | 34.1 nM | 
COCCOc1cccc(-c2ccc3c(c2)OCCC3NC(=O)O[C@@H]2CN3CCC2CC3)c1 (stereo partly drawn) [Example 8, (S)-quinuclidin-3-yl (7-(3-(2-methoxyethoxy)phenyl)chroman-4-yl)carbamate] | 0.48 nM | 3.59 nM | 
O=C(NC1CCOc2cc(-c3ccccc3F)ccc21)O[C@@H]1CN2CCC1CC2 (stereo partly drawn) [Example 9, (S)-quinuclidin-3-yl (7-(2-fluorophenyl)chroman-4-yl)carbamate] | 1.81 nM | 2.83 nM | 
O=C(NC1CCOc2cc(-c3ccccc3Cl)ccc21)O[C@@H]1CN2CCC1CC2 (stereo partly drawn) [Example 10, (S)-quinuclidin-3-yl (7-(2-chlorophenyl)chroman-4-yl)carbamate] | 2.02 nM | 7.23 nM | 
O=C(NC1CCOc2cc(-c3ccccc3C(F)(F)F)ccc21)O[C@@H]1CN2CCC1CC2 (stereo partly drawn) [Example 11, (S)-quinuclidin-3-yl (7-(2-(trifluoromethyl)phenyl)chroman-4-yl)carbamate] | 10.4 nM | 18.2 nM | 
O=C(NC1CCOc2cc(-c3ccccc3OC(F)(F)F)ccc21)O[C@@H]1CN2CCC1CC2 (stereo partly drawn) [Example 12, (S)-quinuclidin-3-yl (7-(2-(trifluoromethoxy)phenyl)chroman-4-yl)carbamate] | 4.28 nM | 3.28 nM | 
O=C(NC1CCOc2cc(-c3ccc(F)cc3)ccc21)O[C@@H]1CN2CCC1CC2 (stereo partly drawn) [Example 13, (S)-quinuclidin-3-yl (7-(4-fluorophenyl)chroman-4-yl)carbamate] | 8.54 nM | 42.8 nM | 
O=C(NC1CCOc2cc(-c3ccc(Cl)cc3)ccc21)O[C@@H]1CN2CCC1CC2 (stereo partly drawn) [Example 14, (S)-quinuclidin-3-yl (7-(4-chlorophenyl)chroman-4-yl)carbamate] | 9.67 nM | 42.1 nM | 
O=C(NC1CCOc2cc(-c3ccc(C(F)(F)F)cc3)ccc21)O[C@@H]1CN2CCC1CC2 (stereo partly drawn) [Example 15, (S)-quinuclidin-3-yl (7-(4-(trifluoromethyl)phenyl)chroman-4-yl)carbamate] | 11.7 nM | 38.9 nM | 
O=C(NC1CCOc2cc(-c3ccc(OC(F)(F)F)cc3)ccc21)O[C@@H]1CN2CCC1CC2 (stereo partly drawn) [Example 16, (S)-quinuclidin-3-yl (7-(4-(trifluoromethoxy)phenyl)chroman-4-yl)carbamate] | 9.4 nM | 27.8 nM | 
COc1ccccc1-c1ccc2c(c1)OCCC2NC(=O)O[C@@H]1CN2CCC1CC2 (stereo partly drawn) [Example 17, (S)-quinuclidin-3-yl (7-(2-methoxyphenyl)chroman-4-yl)carbamate] | 1.41 nM | 5.5 nM | 

Compound | IC50 [1] | IC50 ([2]; Homo sapiens, Jurkat, 72 h) | IC50 ([2]; read-out: IC50)
COc1cccc(-c2ccc3c(c2)OCCC3NC(=O)O[C@@H]2CN3CCC2CC3)c1 (stereo partly drawn) [Example 18, (S)-quinuclidin-3-yl (7-(3-methoxyphenyl)chroman-4-yl)carbamate] | 1.54 nM | 6.98 nM | 
COc1ccc(-c2ccc3c(c2)OCCC3NC(=O)O[C@@H]2CN3CCC2CC3)cc1 (stereo partly drawn) [Example 19, (S)-quinuclidin-3-yl (7-(4-methoxyphenyl)chroman-4-yl)carbamate] | 8.32 nM | 30.5 nM | 
CCOc1ccccc1-c1ccc2c(c1)OCCC2NC(=O)O[C@@H]1CN2CCC1CC2 (stereo partly drawn) [Example 20, (S)-quinuclidin-3-yl (7-(2-ethoxyphenyl)chroman-4-yl)carbamate] | 2.86 nM | 19.1 nM | 
CCOc1cccc(-c2ccc3c(c2)OCCC3NC(=O)O[C@@H]2CN3CCC2CC3)c1 (stereo partly drawn) [Example 21, (S)-quinuclidin-3-yl (7-(3-ethoxyphenyl)chroman-4-yl)carbamate] | 0.67 nM | 4.56 nM | 
CCOc1ccc(-c2ccc3c(c2)OCCC3NC(=O)O[C@@H]2CN3CCC2CC3)cc1 (stereo partly drawn) [Example 22, (S)-quinuclidin-3-yl (7-(4-ethoxyphenyl)chroman-4-yl)carbamate] | 4 nM | 34.2 nM | 
CC(C)c1cccc(-c2ccc3c(c2)OCCC3NC(=O)O[C@@H]2CN3CCC2CC3)c1 (stereo partly drawn) [Example 23, (S)-quinuclidin-3-yl (7-(3-isopropylphenyl)chroman-4-yl)carbamate] | 0.48 nM | 0.57 nM | 
CC(C)c1ccc(-c2ccc3c(c2)OCCC3NC(=O)O[C@@H]2CN3CCC2CC3)cc1 (stereo partly drawn) [Example 24, (S)-quinuclidin-3-yl (7-(4-isopropylphenyl)chroman-4-yl)carbamate] | 4.88 nM | 10.7 nM | 
CC(C)(C)c1cccc(-c2ccc3c(c2)OCCC3NC(=O)O[C@@H]2CN3CCC2CC3)c1 (stereo partly drawn) [Example 25, (S)-quinuclidin-3-yl (7-(3-(tert-butyl)phenyl)chroman-4-yl)carbamate] | 0.65 nM | 1.07 nM | 
CC(C)(C)c1ccc(-c2ccc3c(c2)OCCC3NC(=O)O[C@@H]2CN3CCC2CC3)cc1 (stereo partly drawn) [Example 26, (S)-quinuclidin-3-yl (7-(4-(tert-butyl)phenyl)chroman-4-yl)carbamate] | 10.2 nM | 23.3 nM | 
O=C(NC1CCOc2cc(-c3cc(Cl)ccc3Cl)ccc21)O[C@@H]1CN2CCC1CC2 (stereo partly drawn) [Example 27, (S)-quinuclidin-3-yl (7-(2,5-dichlorophenyl)chroman-4-yl)carbamate] | 0.75 nM | 0.54 nM | 
O=C(NC1CCOc2cc(-c3ccc(Cl)c(Cl)c3)ccc21)O[C@@H]1CN2CCC1CC2 (stereo partly drawn) [Example 28, (S)-quinuclidin-3-yl (7-(3,4-dichlorophenyl)chroman-4-yl)carbamate] | 5.19 nM | 24.1 nM | 
O=C(NC1CCOc2cc(-c3cc(Cl)cc(Cl)c3)ccc21)O[C@@H]1CN2CCC1CC2 (stereo partly drawn) [Example 29, (S)-quinuclidin-3-yl (7-(3,5-dichlorophenyl)chroman-4-yl)carbamate] | 2.28 nM | 12.4 nM | 
O=C(NC1CCOc2cc(-c3ccc(F)c(F)c3F)ccc21)O[C@@H]1CN2CCC1CC2 (stereo partly drawn) [Example 30, (S)-quinuclidin-3-yl (7-(2,3,4-trifluorophenyl)chroman-4-yl)carbamate] | 3.92 nM | 48.2 nM | 
O=C(NC1CCOc2cc(-c3cc(F)c(F)cc3F)ccc21)O[C@@H]1CN2CCC1CC2 (stereo partly drawn) [Example 31, (S)-quinuclidin-3-yl (7-(2,4,5-trifluorophenyl)chroman-4-yl)carbamate] | 3.26 nM | 27.6 nM | 
CC1(C)COc2cc(-c3ccc(N4CCOCC4)c(F)c3)ccc2C1NC(=O)O[C@@H]1CN2CCC1CC2 (stereo partly drawn) [Example 204, (S)-quinuclidin-3-yl (7-(3-fluoro-4-morpholinophenyl)-3,3-dimethylchroman-4-yl)carbamate] |  |  | 0.31 nM
CC1(C)CC(NC(=O)O[C@@H]2CN3CCC2CC3)c2cc(-c3cccc(F)c3)ccc2O1 (stereo partly drawn) [Example 294, (S)-quinuclidin-3-yl (6-(3-fluorophenyl)-2,2-dimethylchroman-4-yl)carbamate] | 145 nM |  | 
